The results in this text go back to patent US11096947B2, “Combination products with tyrosine kinase inhibitors and their use” (Novartis AG, priority 2012, dated 2021).

The structures appear in SMILES notation.

The test system of one assay is HCC827 GR cells. The assay can be described thus: Proliferation assay (resazurin / AlamarBlue readout) in gefitinib-resistant HCC827 GR cells. The assay is classed as cell-based. To be noted: monotherapy.
In assay [1] the test system is c-MET-driven or HGF/c-MET-driven xenograft. The assay can be described thus: c-MET-driven or HGF/c-MET-driven xenograft mouse tumor models. The assay is classed as in vivo. Particulars: oral dosing. The text has this:
[…]. […] […]. […] Importantly, cell lines with simultaneous HGF and c-MET expression are also relatively resistant to EGFR inhibitors compared to cell lines with similar c-MET level that lack HGF expression.

In another assay the test system is HCC827 cells. The assay can be described thus: Proliferation assay (resazurin / AlamarBlue readout) in HCC827 cells. The assay is classed as cell-based. To be noted: single agent, up to 1 μM. For orientation: The colour change of resazurin is a common sign of viable cells or microbes.
In assay [2] the test system is HCC827GR5 subcutaneous xenografts. In words: Efficacy experiments in mice bearing HCC827GR5 subcutaneous xenografts. The assay is classed as in vivo. Particulars: for antitumor effect as single agent: Discussion; for antitumor effect as single agent / regressions / Delta tumor volume: MET inhibitor 3 mg/kg, gefitinib 25 mg/kg; for regressions: orally once a day; for regressions / T/C: 13 days; for T/C: gefitinib 25 mg/kg orally once a day. How it is done:
Experiments were performed in female Hsd: Athymic nude-nu CPB mice obtained from Harlan Winkelmann, Germany. Animally were approximately 11 weeks of age at treatment start and housed under Optimized Hygienic Conditions (OHC) in Macrolon type III cages (max. 5 animals per cage) with free access to food and water.
Cell line identity has been confirmed by SNP genotyping. Cells were grown in RPMI 1640 medium (Amimed #1-41F01-1) supplemented with 10% heat inactivated FCS, (Amimed #2-01F16-1), 2 mM L-glutamine (Amimed #5-10K00-H), 1 mM sodium pyruvate (Amimed #5-60F00-H) and 10 mM HEPES (Gibco #15630). […]. Cells were incubated at 37° C. in a humidified atmosphere with 5% CO2.
HCC827GR5 tumors were established by subcutaneous injection of 5×10^6 cells in 115 μl HBSS (Hank's buffered salt solution) containing 50% Matrigel (v/v) (gelatinous protein mixture secreted by Engelbreth-Holm-Swarm (EHS) mouse sarcoma cells, BD Biosciences, Franklin Lakes, N.J., USA) into the right flank of mice, with a 13 gauge trocar needle under Forene® (Isofluran; Abott, Switzerland) anesthesia. In the efficacy experiments, treatments started when the tumors reached an average size of 150 mm^3, 11 days post tumor implantation. In the PK/PD experiment, treatments were started when the mean tumor size was 450 mm^3, 15 days post tumor implantation.
The application volumes were 10 ml/kg for the single agents and for the vehicle control group or 5 ml/kg when the test compounds were given in combination. All indicated doses refer to free base equivalent of 2-Fluoro-N-methyl-4-[(7-quinolin-6-yl-methyl)-imidazo[1,2-b]triazin-2-yl]benzamide (dihydrochloride salt). […].
Tumor volumes were measured with calipers and determined according to the formula length×diameter^2×π/6. In addition to presenting changed of tumor volumes over the course of treatments, antitumor activity is expressed as T/C % ((mean change of tumor volume of treated animals/mean change of tumor volume of control animals)×100). Regressions (%) were calculated according to the formula ((mean tumor volume at end of treatment−mean tumor volume at start of treatment)/mean tumor volume at start of treatment)×100. Body weights and tumor volumes were recorded twice a week.
Statistics: Were applicable, data is presented as mean±SEM. For all tests, the level of significance was set at p<0.05. For tumor volumes, comparisons between treatment groups and vehicle control group were done using one-way ANOVA followed by Dunnett's test. Pairwise comparisons were done using a one way ANOVA followed by Tukey's test. The level of significance of body weight change within a group between the start and the end of the treatment period was determined using a paired t-test. Comparisons of delta body weighs between treatment and vehicle control groups were performed by a one-way ANOVA followed by a post hoc Dunnett's test. Calculations were performed using GraphPad Prism 4 for Windows (GraphPad Software Inc.). In addition, an approximation of drug interactions was made using the method described by Clarke (Clarke R., Breast Cancer Research and Treatment 46, 255-278 (1997)). This was applied to delta tumor volumes and can estimate interactions from limited data. In short, the combination data was assessed using the method presented by Clarke which can estimate interactions from limited data. For compound A, B or the combination AB (with control group C), antagonism is predicted when the calculation AB/C>A/C×B/C, additive effect: AB/C=A/C×B/C, synergistic interactions are predicted to occur when AB/C<A/C×B/C.
The body weight increase was statistically significant in all groups excepted the combination group (p<0.05, paired t-test).

Assay [3] shares this test system. The assay can be described thus: Follow-up of HCC827GR5 xenografts after treatment discontinuation or extension. To be noted: 4 animals. The assay is classed as in vivo, mice. How it is done:
FIG. 5: Graphic representation of the change of tumor volumes over time after treatment discontinuation in mice (in vivo) as described in more detail in the Examples. […] Treatments started 11 days post tumor cells implantation and lasted 13 consecutive days. […] Four animals were kept under observation, without any treatment (left panel) while the two other groups of 4 animals each were kept under daily treatment as before (right panel). Tumor volumes and body weights were recorded only once a week. Horizontal lines are set at 100 and 500 mm^3 tumor volumes.
[…]. Treatments started 11 days post tumor cells implantation and lasted 13 consecutive days. […] Four animals were kept under observation, without any treatment (left panel) while the two other groups of 4 animals each were kept under daily treatment as before (right panel). Tumor volumes and body weights were recorded only once a week. Horizontal lines are set at 100 and 500 mm^3 tumor volumes, respectively. […] […]. The tumors in the animals that received the combination therapy continued to regress from a mean volume of 33+/−1.3 to 26.3+/−2.8 mm^3 (representing a mean of 89.2% regression from the initial volume).

Procedure for HCC827 GR cells: 24 h later, a 10-point dilution series of each compound was prepared in DMSO. […] A DMSO-only control was included. […] Recombinant human HGF (PeproTech, catalogue number 100-39) was added together with compounds at a constant concentration as indicated in the respective experiments. Cells were incubated for 72 to 96 h and the amount of viable cells was then assessed using a resazurin sodium salt dye reduction readout (commercially known as AlamarBlue® assay, Invitrogen, Life Technologies Corporation, Grand Island, N.Y., USA). Values were normalized and plotted as either “% of control” with the DMSO control set to 100%, or as “fold seeded cells”. In this case a resazurin readout of separate wells with untreated cells was obtained 24 h after seeding in order to determine a “seeded cells” value for normalization.
Procedure for HCC827 cells: A DMSO-only control was included. […] Recombinant human HGF (PeproTech, catalogue number 100-39) was added together with compounds at a constant concentration as indicated in the respective experiments. Cells were incubated for 72 to 96 h and the amount of viable cells was then assessed using a resazurin sodium salt dye reduction readout (commercially known as AlamarBlue® assay, Invitrogen, Life Technologies Corporation, Grand Island, N.Y., USA). Values were normalized and plotted as either “% of control” with the DMSO control set to 100%, or as “fold seeded cells”. In this case a resazurin readout of separate wells with untreated cells was obtained 24 h after seeding in order to determine a “seeded cells” value for normalization. Plotting of the data and curve-fitting were done with GraphPad Prism version 5.00 for Windows (GraphPad Software, Inc., La Jolla, Calif., USA).

`CNC(=O)c1ccc(-c2cnc3ncc(Cc4ccc5ncccc5c4)n3n2)cc1F` [2-fluoro-N-methyl-4-[(7-quinolin-6-yl-methyl)-imidazo[1,2-b]triazin-2-yl]benzamide]: the “effect of single agent on proliferation of HCC827 GR cells” value with HCC827 GR cells is given as “modest”. For the same compound, the “in vivo activity in blocking c-MET phosphorylation and tumor growth” value in assay [1] is recorded as “significant in vivo activity”. Besides, in the assay on HCC827 cells, the “effect on proliferation of the HCC827 cells” value is “did not show any substantial effect”. Further, in assay [2], the “antitumor effect as single agent” value is given as “slight statistically significant tumor regressions”. Moreover, the regressions in assay [2] (first experiment (FIG. 3)) is 22.9%; in assay [2] (second experiment (FIG. 4)) it was 21.4%. The Delta tumor volume is reported as −60.2 in assay [2] (first experiment, Table 1) and −55.7 in assay [2] (second experiment, Table 2). The “tumor volume, mean+/−SEM, after treatment discontinuation” value in assay [3] (no treatment after day 24 (FIG. 5 left graph)) is 516+/−112 mm^3. In addition, the “tumor volume, mean, under extended daily treatment” value in assay [3] (treatment continued after day 24 (FIG. 5 right panel)) is reported as 400+/−80 mm^3.
Consider `COc1cc2ncnc(Nc3ccc(F)c(Cl)c3)c2cc1OCCCN1CCOCC1` [gefitinib, N-(3-hloro-4-fluorophenyl)-7-methoxy-6-[3-(morpholin-4-yl)propoxy]quinazolin-4-amine, reference compound], for which the “antitumor effect as single agent” value in assay [2] is given as “statistically significant antitumor effects, but never regressions”. Also, the T/C in assay [2] (first experiment (FIG. 3)) is reported as 32.5%; in assay [2] (second experiment (FIG. 4)) it was 49.4%. The Delta tumor volume is on record as 173.1 in assay [2] (first experiment, Table 1) and 261 in assay [2] (second experiment, Table 2).

The T/C is the ratio of treated to control.
